Experiments:
[1] = cited from earlier work
G-CSF = G-CSF ELISA of serum of treated mice; assay type: in vivo; conditions: 3AC 26.5 mg/kg i.p. 5 days, vs vehicle
Method: Peripheral blood was collected in serum separation microvette tubes (SARSTEDT). Tubes were kept at room temperature for 2 hrs. and then spun at 2000×g for 20 min as per manufacturers recommendation. Serum levels of G-CSF in treated mice were determined using a Mouse G-CSF Quantikine Elisa kit (R&D systems).

HSC = assay: CRU assay (competitive repopulating units), primary and secondary; assay type: in vivo, mice
Method: CD45.1^+45.2^+-recipient mice were given a split dose of 550 Rads (x-ray source, RS2000-RAD source technologies, inc.) 4 hours apart for a lethal total dose of 1100 Rads. WBM (5×10^5) cells from 3AC (CD45.2) treated mice were competed with WBM cells from vehicle (CD45.1) treated mice and injected retro-orbitally into CD45.1^+45.2^+ hosts. PBMC multi-lineage reconstitution was evaluated every month post-transplant for 4 months. Transplanted mice were euthanized and serially transplanted to determine self-renewal capacity. Repopulating Units (RU) determination was previously decribed.^15 Briefly, RU=(C×CD45.2 repopulation %)/(100−CD45.2 repopulation %) where C=10^5 competitor cells.^6
Normal Repopulating units (RU) are calculated based on total number of competitor cells transplanted. Due to the expansion in the bone marrow compartment of SHIPi treated mice, we calculated the absolute RU numbers based on RU output determined by CRU assay and total BM cellularity. Total BM cellularity was determined via hemacytometer (BioRAD, TC20 cell counter) based on a total BM cells obtained from an intact set of femurs and tibias for each mouse in the study. Absolute RU=(Total BM cellularity/5×10^5)×RU.

[2] = transient SHIPi treatment; cited from earlier work
HSC compartment = assay: Flow cytometric quantitation of hematopoietic stem/progenitor populations and cellularity in bone marrow of treated mice; assay type: in vivo, C57BL/6NTac mice
Method: HSC phenotype, cell-cycle progression, G-CSF neutralization, and CXCR4 MFI determination by FACS analysis was performed on whole bone marrow (WBM) cells harvested from a tibia and femur pair obtained from SHIPi and vehicle treated 8-12 week old male C57BL/6NTac mice (Taconic). Generation of the CD45.1×CD45.2 strain utilized in the CRU assay were obtained by intercrossing C57BL6/J (CD45.2) and B6.SJL (CD45.1), as previously described.^5 The SUNY Upstate Medical University Committee for Humane Use of Animals approved all animal experiments.
In vivo administration of 3AC was previously described.^14 Briefly, 3AC is resuspended as an emulsion in 0.3% Klucel/H20. Mice were treated via intraperitoneal injection every 24 hrs for 5 days at a final concentration of 26.5 mg/kg. Analysis and transplants were performed on day 6. The 3AC derivative K118 (Soluble SHIPi) was suspended in pure H2O and heated at 100° C. for ˜15 min to allow the compound to enter solution. The delivery method was the same as with 3AC, however, the mice were treated for 5 days at a final concentration of 10 mg/kg. Vehicle cohorts for 3AC were treated with 0.3% Klucel/H20 and K118 were treated with pure H2O.
Cell isolation was performed according to method detailed in Hazen et al.^6 Briefly, WBM was flushed from both femurs and tibias per mouse with a 25-gauge needle, red blood cell lysed (eBioscience), and resuspended in staining media comprised of Hanks Buffered Saline Solution (HBSS), 2% heat inactivated fetal bovine serum (FBS), and 10 mM HEPES (Sigma). The cells harvested for the CRU assay were flushed, red blood cell lysed, washed, and resuspended in sterile phosphate buffered saline (PBS). Peripheral blood mononuclear cells (PBMC) were collected via submandibular bleed in EDTA Micorvette tubes (SARSTEDT).
All antibodies were from BD Biosciences or eBioscience. All WBM, PBMC and BM derived MSC cell populations were Fc blocked on ice for 10 min prior to antibody staining. Global reconstitution was determined by staining PBMC with CD45.1-PeCy7 and CD45.2-APC. Multi-lineage repopulation was determined by staining PBMC with CD3-FITC (145-2C11), CD19-PerCP5.5 (1D3), Mac1-PE (M1/70), Gr1-Alexa700 (RB6-8C5) and NK1.1-APC-Cy7 (PK136). The Lin−cKit+Sca1+CD34−Flk2− (LSKF34−) phenotype was utilized to determine frequency of LT-HSC, ST-HSC, and MPP; the stain was comprised of Lin-PerCP 5.5, cKit-APC (2B8), Sca1-PeCy7 (D7), CD34-FITC (RAM34), Flk2-PE (A2F10). LSKF-CXCR4 stain was used to determine surface expression of the homing marker CXCR4. All cells were washed twice with staining media, resuspended in staining media plus DAPI for dead cell exclusion, and then analyzed on a flow cytometer LSRII (BD Biosciences). All flow cytometry data was analyzed using FlowJo (9.4.3) software.

LT-HSC = assay: Cell cycle analysis of BM LT-HSC (Hoechst / Pyronin Y); assay type: in vivo, C57BL/6NTac mice; conditions: 3AC 26.5 mg/kg i.p. 5 days, vs vehicle
Method: WBM cells were stained with LSKCD34 and fixed in BD Cytofix/Cytoperm buffer for 30 minutes on ice. Fixed cells were stained with 10 μM Hoechst 33342 (HO; Sigma-Aldrich) for 45 min at 37° C. The cells were then incubated with 5 μM Pyronin Y (PY; Sigma-Aldrich) in HBSS medium with 2% FBS in the presence of 50 μM verapamil (Sigma-Aldrich) for 30 minutes at 37° C., washed, and immediately analyzed by UV laser-equipped BD LSRII analyzer.

[3] = system: radiation-induced myeloablation; assay: Lymphocyte and WBC recovery in radiation induced bone marrow failure model; assay type: in vivo, C57BL/6J mice; conditions: 550 Rads sub-lethal irradiation, 3AC daily 7 days i.p., vs vehicle
Method: We utilized a radiation-induced hematological myeblation to create our bone marrow failure model. C57BL/6J mice (8-12 week) (The Jackson Laboratory, Bar Harbor, Me.) were sub-lethally irradiated at 550 Rads. 3AC and vehicle were administered daily for 7 days post irradiation via IP injection. PB was collected by submandibular bleeding on days 8, 15, 22 and 32 and analyzed for WBC and lymphocyte counts [Thousands per microliter (K/uL)] on a Hemavet 950S (Drew Scientific, Waterbury, Conn., USA) analysis.

PDGFRα+CD51+ MSC = assay: In vivo MSC immunophenotyping by flow cytometry; design: species or system mice; conditions: 3AC 26.5 mg/kg i.p. 5 days, vs vehicle
Method: PDGFRα^+CD51^+ MSC were detected using methods and reagents as described by Iyer et al.^8 Femurs, tibias, humeri, ulnas, radii, and pelvis were dissected; the bone fragments were cleaned, cut into tiny pieces, and then crushed using a mortar and pestle. The bone chips were then washed several times in HBSS supplemented with 2% heat-inactivated FBS (HBSS/2% HI-FBS) and HBSS only, and then spun at 350×g for 5 mins. The pellet was re-suspended in 3 mg/mL type I collagenase (Worthington) and 15 μg/mL DNAase (Sigma, St. Louis, Mo.) dissolved in HBSS and incubated at 37° C. for 30 min at 110 rpm, this step was repeated twice. Following incubation, mononuclear cells were obtained using a Ficoll gradient ([…] and Histopaque-1077; Sigma, St. Louis, Mo.), and were then used for further analysis. Cells were stained with antibodies as described in Iyer et al.^8

[4] = system: radiation-induced myeloablation; conditions: post radiation-induced myeloablation; cited from earlier work
[5] = 3AC 26.5 mg/kg i.p. 5 days, BM, vs vehicle
[6] = 3AC 26.5 mg/kg i.p. 5 days, vs vehicle

In the case of `CC(C)CCC[C@@H](C)[C@@H]1CC[C@H]2[C@@H]3CCC4C[C@H](N)CC[C@]4(C)[C@H]3CC[C@@]21C` (stereo partly drawn) [3AC], the aqueous solubility [1] is given as “poor aqueous solubility”, the “G-CSF production in vivo” value (G-CSF) is given as “super-induces” and the “G-CSF production in vivo” value (G-CSF; listed as SHIPi) is given as “increases”. For the same compound, the CRU frequency (HSC; BM of 3AC vs vehicle donors) was “increases”, the “increase in cells with HSC capacity (absolute CRU numbers)” value (HSC; after accounting for total BM cellularity, vs vehicle) was ~6 fold and the “global blood cell reconstitution by BM cells of treated donors” value (HSC; primary CRU, 3AC-treated vs vehicle-treated donors, monthly for 4 months post-transplant) was “significantly greater”. The “lineage reconstitution (B, T, NK, myeloid)” value (HSC; primary CRU, entire post-transplant period) was “greater proportion of all major blood cell lineages analyzed”, the “bias or impairment in lineage output after serial transfer” value (HSC; secondary CRU hosts, 1 month post-transplant) was “did not observe a significant bias or impairment” and the “repopulation of all major lineages in secondary hosts” value (HSC; secondary CRU, vs competing vehicle BM) was “significantly higher”. For the same compound, the “development of pulmonary and gastrointestinal inflammation” value [2] was “does not induce”, the “absolute number of LSK cells” value (HSC compartment; [5]) was “significantly increases” and the “frequency of LSK cells” value (HSC compartment; [5]) was “significantly increases”. The “CXCR4 surface expression on expanded HSC pool” value (HSC compartment; 3AC 26.5 mg/kg i.p. 5 days, MFI by FACS) was “does not cause a reduction”, the “frequency of LT-HSC (LSKFlk2-CD34-) in BM” value (HSC compartment; [6]) was “increases the frequency” and the “frequency of MPP (LSKFlk2+CD34+) in BM” value (HSC compartment; [6]) was “increases the frequency”. The “frequency of ST-HSC (LSKFlk2-CD34+) in BM” value (HSC compartment; [6]) was “increases the frequency”, the “expansion in BM of cells with a primitive HSC phenotype” value (HSC compartment; 3AC 26.5 mg/kg i.p. 5 days, frequency combined with BM cellularity) was 3-4 fold and the “bone marrow cellularity (BMC)” value (HSC compartment; 3AC 26.5 mg/kg i.p. every 24 hrs for 5 days, analysis day 6, vs vehicle) was “significant increase”. For the same compound, the “frequency of LT-HSC in S and G2 phases of the cell cycle” value (LT-HSC) was “significantly greater frequency”, the “recovery of lymphocyte numbers” value [3] was “significantly improved recovery” and the “recovery of white blood cell (WBC) numbers” value [3] was “significantly improved recovery”. The “Pα+51+ MSC compartment size in BM” value (PDGFRα+CD51+ MSC) was “approximate doubling”, the “recovery of neutrophil numbers” value [4] was “more rapid recovery” and the “recovery of platelet numbers” value [4] was “more rapid recovery”.
